Data as given in ChEMBL document CHEMBL1127663, “High-affinity and potent, water-soluble 5-amino-1,4-benzodiazepine CCKB/gastrin receptor antagonists containing a cationic solubilizing group” (J Med Chem, 1994).

Experiments:
[1] = target: T1, Cholecystokinin receptor type A (Rattus norvegicus, UniProt P30551); experiment: Binding activity against Cholecystokinin type A receptor from rat pancreas using [125]BH CCK-8s as radioligand.
T1 sequence (P30551 whole entry): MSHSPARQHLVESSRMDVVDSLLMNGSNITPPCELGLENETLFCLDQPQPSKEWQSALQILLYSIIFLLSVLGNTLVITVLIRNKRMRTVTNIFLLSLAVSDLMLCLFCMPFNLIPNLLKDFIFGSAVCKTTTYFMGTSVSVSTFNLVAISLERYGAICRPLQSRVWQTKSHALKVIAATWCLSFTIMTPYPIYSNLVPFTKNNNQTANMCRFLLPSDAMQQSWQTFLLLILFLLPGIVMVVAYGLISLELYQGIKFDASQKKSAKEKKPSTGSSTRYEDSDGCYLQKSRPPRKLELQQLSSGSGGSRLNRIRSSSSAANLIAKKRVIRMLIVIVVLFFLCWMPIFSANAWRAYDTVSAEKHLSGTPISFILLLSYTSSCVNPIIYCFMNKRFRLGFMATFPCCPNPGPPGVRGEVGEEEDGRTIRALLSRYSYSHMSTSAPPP

[2] = Binding activity against Cholecystokinin type B receptor from guinea pig cortex using [125]BH CCK-8s as radioligand.

Structure (SMILES) | IC50 [1] | IC50 [2]
Cc1cccc(NC(=O)NC2N=C(N3CCCCC3)c3ccccc3N(C)C2=O)c1 (centres undefined) | 17 nM | –
Cc1cccc(NC(=O)N[C@H]2N=C(N3CC4CCC(CC4)C3)c3ccccc3N(C)C2=O)c1 | 6.5 nM | –
Cc1cccc(NC(=O)NC2N=C(N3CC4CCC(CC4)C3)c3ccccc3N(C)C2=O)c1 (centres undefined) | 19.9 nM | –
Cc1cccc(NC(=O)N[C@@H]2N=C(C3CCCCC3)c3ccccc3N(C)C2=O)c1 | – | 0.28 nM
